Assay results reported in PubChem BioAssay AID1963443 (Molecular Pharmacology Branch, DTP, NCI, 2024).

System: MDA-MB-231 complex spheroids, growth inhibition
Test: Anticancer human tumor MDA-MB-231 cell line growth inhibition [Asc];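 further: spheroids exposed to compounds for 7 days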
Conditions: for IC50: curve of first compound; for viability, T/C: stronger effect = lower value; active means viability on the fitted dose curve at most 10% of control; inactive means the rest
Method in brief: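 Stromal components (HUVEC and hMSC) are co-assembled with the cancer cells into multicellular spheroids. Drugs are then added singly or paired, at concentrations falling by half-log increments from a clinically achievable maximum, capped at 10 microM without known Cmax.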

[1] = second compound 0.01 µM, first compound 0.0316 µM
[2] = second compound 0.01 µM, first compound 0.1 µM
[3] = second compound 0.01 µM, first compound 0.316 µM
[4] = second compound 0.01 µM, first compound 1 µM
[5] = second compound 0.01 µM, first compound 3.16 µM
[6] = second compound 0.01 µM, first compound 10 µM
[7] = second compound 0.0316 µM, first compound 0.0316 µM
[8] = second compound 0.0316 µM, first compound 0.1 µM
[9] = second compound 0.0316 µM, first compound 0.316 µM
[10] = second compound 0.0316 µM, first compound 1 µM
[11] = second compound 0.0316 µM, first compound 3.16 µM
[12] = second compound 0.0316 µM, first compound 10 µM
[13] = second compound 0.1 µM, first compound 0.0316 µM
[14] = second compound 0.1 µM, first compound 0.1 µM
[15] = second compound 0.1 µM, first compound 0.316 µM
[16] = second compound 0.1 µM, first compound 1 µM
[17] = second compound 0.1 µM, first compound 3.16 µM
[18] = second compound 0.1 µM, first compound 10 µM
[19] = second compound 0.316 µM, first compound 0.0316 µM
[20] = second compound 0.316 µM, first compound 0.1 µM
[21] = second compound 0.316 µM, first compound 0.316 µM
[22] = second compound 0.316 µM, first compound 1 µM
[23] = second compound 0.316 µM, first compound 3.16 µM
[24] = second compound 0.316 µM, first compound 10 µM
[25] = second compound 1 µM, first compound 0.0316 µM
[26] = second compound 1 µM, first compound 0.1 µM
[27] = second compound 1 µM, first compound 0.316 µM
[28] = second compound 1 µM, first compound 1 µM
[29] = second compound 1 µM, first compound 3.16 µM
[30] = second compound 1 µM, first compound 10 µM

C=C(F)C(=O)N1CCN(c2nc(OCC3CCCN3C)nc3c2CCN(c2cccc4cccc(Cl)c24)C3)CC1CC#N (stereo not given) + CNC(C)C(=O)NC1CN(S(=O)(=O)c2cccc(S(=O)(=O)N3CCC4CCC(C(=O)NC(c5ccccc5)c5ccccc5)N4C(=O)C(NC(=O)C(C)NC)C3)c2)CCC2CCC(C(=O)NC(c3ccccc3)c3ccccc3)N2C1=O
active: viability, T/C [1] 1.99% | viability, T/C [2] 2.81% | viability, T/C [3] 1.5% | viability, T/C [4] 1.02% | viability, T/C [5] 0.39% | viability, T/C [6] 0.09% | viability, T/C [7] 1.12% | viability, T/C [8] 2.63% | viability, T/C [9] 1.75% | viability, T/C [10] 1.07% | viability, T/C [11] 0.75% | viability, T/C [12] 0.93% | viability, T/C [13] 0.94% | viability, T/C [14] 1.79% | viability, T/C [15] 1.68% | viability, T/C [16] 0.86% | viability, T/C [17] 0.38% | viability, T/C [18] 0.08% | viability, T/C [19] 0.86% | viability, T/C [20] 1.12% | viability, T/C [21] 1.54% | viability, T/C [22] 1.37% | viability, T/C [23] 0.42% | viability, T/C [24] 0.08% | viability, T/C [25] 1.4% | viability, T/C [26] 1.56% | viability, T/C [27] 1.18% | viability, T/C [28] 1.49% | viability, T/C [29] 0.43% | viability, T/C [30] 0.98%
< 31.6 nM: IC50 (second compound 0.01 µM) | IC50 (second compound 0.0316 µM) | IC50 (second compound 0.1 µM) | IC50 (second compound 0.316 µM) | IC50 (second compound 1 µM)

C=CC(=O)N1CCN(c2nc(=O)n(-c3c(C)ccnc3C(C)C)c3nc(-c4c(O)cccc4F)c(F)cc23)C(C)C1 (stereo not given) + CNC(C)C(=O)NC1CN(S(=O)(=O)c2cccc(S(=O)(=O)N3CCC4CCC(C(=O)NC(c5ccccc5)c5ccccc5)N4C(=O)C(NC(=O)C(C)NC)C3)c2)CCC2CCC(C(=O)NC(c3ccccc3)c3ccccc3)N2C1=O
active: viability, T/C [1] 4.27% | viability, T/C [2] 4.47% | viability, T/C [3] 3.48% | viability, T/C [4] 4.14% | viability, T/C [5] 3.21% | viability, T/C [6] 2.6% | viability, T/C [7] 1.6% | viability, T/C [8] 1.97% | viability, T/C [9] 3.62% | viability, T/C [10] 3.15% | viability, T/C [11] 2.97% | viability, T/C [12] 3.77% | viability, T/C [13] 1.84% | viability, T/C [14] 1.71% | viability, T/C [15] 1.31% | viability, T/C [16] 0.87% | viability, T/C [17] 2.25% | viability, T/C [18] 1.71% | viability, T/C [19] 1.02% | viability, T/C [20] 1.06% | viability, T/C [21] 2.22% | viability, T/C [22] 1.43% | viability, T/C [23] 1.4% | viability, T/C [24] 2.33% | viability, T/C [25] 1.09% | viability, T/C [26] 1.13% | viability, T/C [27] 1.81% | viability, T/C [28] 1.73% | viability, T/C [29] 1.35% | viability, T/C [30] 3.82%
< 31.6 nM: IC50 (second compound 0.01 µM) | IC50 (second compound 0.0316 µM) | IC50 (second compound 0.1 µM) | IC50 (second compound 0.316 µM) | IC50 (second compound 1 µM)

CCN1C(C(=O)NC23CCC(C(=O)O)(CC2)CC3)C(c2cccc(Cl)c2F)C2(C(=O)Nc3cc(Cl)ccc32)C12CCCCC2 (stereo not given) + CNC(C)C(=O)NC1CN(S(=O)(=O)c2cccc(S(=O)(=O)N3CCC4CCC(C(=O)NC(c5ccccc5)c5ccccc5)N4C(=O)C(NC(=O)C(C)NC)C3)c2)CCC2CCC(C(=O)NC(c3ccccc3)c3ccccc3)N2C1=O
active: viability, T/C (second compound 0.01 µM, first compound 0.00949 µM) 2.02% | viability, T/C (second compound 0.01 µM, first compound 0.03 µM) 2.75% | viability, T/C (second compound 0.01 µM, first compound 0.0949 µM) 1.79% | viability, T/C (second compound 0.01 µM, first compound 0.3 µM) 1.37% | viability, T/C (second compound 0.01 µM, first compound 0.949 µM) 2.73% | viability, T/C (second compound 0.01 µM, first compound 3 µM) 2.05% | viability, T/C (second compound 0.0316 µM, first compound 0.00949 µM) 1.54% | viability, T/C (second compound 0.0316 µM, first compound 0.03 µM) 2.84% | viability, T/C (second compound 0.0316 µM, first compound 0.0949 µM) 1.94% | viability, T/C (second compound 0.0316 µM, first compound 0.3 µM) 0.92% | viability, T/C (second compound 0.0316 µM, first compound 0.949 µM) 1.76% | viability, T/C (second compound 0.0316 µM, first compound 3 µM) 1.43% | viability, T/C (second compound 0.1 µM, first compound 0.00949 µM) 1.27% | viability, T/C (second compound 0.1 µM, first compound 0.03 µM) 1.6% | viability, T/C (second compound 0.1 µM, first compound 0.0949 µM) 1.85% | viability, T/C (second compound 0.1 µM, first compound 0.3 µM) 0.87% | viability, T/C (second compound 0.1 µM, first compound 0.949 µM) 1.78% | viability, T/C (second compound 0.1 µM, first compound 3 µM) 2.03% | viability, T/C (second compound 0.316 µM, first compound 0.00949 µM) 0.92% | viability, T/C (second compound 0.316 µM, first compound 0.03 µM) 2.14% | viability, T/C (second compound 0.316 µM, first compound 0.0949 µM) 1.07% | viability, T/C (second compound 0.316 µM, first compound 0.3 µM) 0.78% | viability, T/C (second compound 0.316 µM, first compound 0.949 µM) 1.14% | viability, T/C (second compound 0.316 µM, first compound 3 µM) 1.24% | viability, T/C (second compound 1 µM, first compound 0.00949 µM) 1.09% | viability, T/C (second compound 1 µM, first compound 0.03 µM) 0.9% | viability, T/C (second compound 1 µM, first compound 0.0949 µM) 0.88% | viability, T/C (second compound 1 µM, first compound 0.3 µM) 2.3% | viability, T/C (second compound 1 µM, first compound 0.949 µM) 0.81% | viability, T/C (second compound 1 µM, first compound 3 µM) 0.71%
< 9.49 nM: IC50 (second compound 0.01 µM) | IC50 (second compound 0.0316 µM) | IC50 (second compound 0.1 µM) | IC50 (second compound 0.316 µM) | IC50 (second compound 1 µM)
